Assay results: US20080207522A1, “Antimicrobial Peptides” (priority 2004, published 2008)
Several values for one entry are separate records, joined by “and”; a condition that tells them apart may be missing. Equal values may be shown once.

Legend:
[1] = test system: Pseudomonas aeruginosa strain H1001; assay: Assay for the cleaved (free, soluble) peptides from cellulose support, luminescence killing assay; assay type: cell-based; set-up: key: 1: Peptides showing stronger killing than Bac2A at a 4 to 8-fold higher dilution; Peptides showing stronger killing compared to that of Bac2A at a 4-fold higher dilution; 3: Peptides similar to Bac2A; 4: Peptides similar to Bac2A at the highest concentration but demonstrating weaker killing at a 2-fold dilution; 5: Peptides giving very weak or no killing at a 2-fold dilution; 6: Peptides with weak killing activity at the highest concentration; conditions: free (cleaved) peptides, killing relative to Bac2A
Experimental: Assay for the cleaved peptides from cellulose support. The peptides were cleaved from the dried membrane in an ammonia atmosphere overnight, resulting in free peptides with an amidated C-terminus. The free peptides contained two β-alanines at the C-terminus, in addition to being amidated due to the linker between the cellulose membrane and the peptide sequence. The peptide spots were punched out and transferred in a 96-well microtiter plate. Serial dilutions were carried out from the membrane spots. Four rows were filled with four controls including two with Bac2A and two with of an unrelated peptide. The other eight rows were used for serial dilution steps of the peptide variants. An overnight culture of Pseudomonas aeruginosa strain H1001 was diluted 1:500 using either LB media or 100 mM Tris buffer pH 7.3, 20 mM glucose and was added to the wells (100 μl/well) containing the peptide spots. In all other wells 50 μl were added. The microtiter plate was incubated for 30 min at 37° C. to release the peptides from the membrane. Subsequently, a dilution series were performed and the plate was incubated at 37° C. The luminescence produced by the ATP dependent luciferase system were detected in a time dependent manner using a Tecan Spectra Fluor plus.
(§1) Strains. For the killing assay a mini-Tn5-lux mutant in Pseudomonas aeruginosa H103 was used. The strain is called H1001 and contains a fliC::luxCDABE transcriptional fusion resulting in constitutive expression of luciferase. The bacterial strains used for the antimicrobial activity assays included Escherichia coli UB1005 (F-, nalA37, metB1), a wild-type Salmonella enterica ssp. Typhimurium (S. Typhimurium), wild-type Pseudomonas aeruginosa PAO1 strain H103, Enterococcus faecalis ATCC29212, Staphylococcus aureus ATCC25923, and a clinical isolate of Staphylococcus epidermidis obtained from Dr. D. Speert (Department of Medicine, University of British Columbia). Antifungal activity was tested using a lab isolate of Candida albicans obtained from Dr. B. Dill (Department of Microbiology and Immunology, University of British Columbia).
Peptide synthesis on cellulose is a very effective and inexpensive way to investigate many different peptide variants for one particular activity. However, one of the problems of this technique is the low peptide density synthesized on the membrane, about 280 nmol per cm2. An average peptide spot used for the experiments presented is about 0.3 cm2. Therefore, an assay had to be developed that was sensitive enough to show activity with this amount of peptides. P. aeruginosa H1001 has a reporter system (e.g., a luciferase gene cassette) incorporated into the bacterial chromosome in the fliC gene (involved in flagellar biosynthesis) that is constitutively expressed. It will thus produce light if ATP is present. When this strain is killed, e.g. by peptides, the amount of light produced will decrease due to a decrease in ATP levels in the killed cells. This action can thus be monitored by detecting luminescence in a microtiter plate luminescence reader over time. The volume and amount of cells per well were optimized for this assay. After screening, the killing action was monitored with small amounts of the parent peptide Bac2A (2 μg/ml of free peptide).
Forty-nine scrambled peptides (Bac002-Bac050) were synthesized on the cellulose support and then cleaved by ammonia gas resulting in free peptides with an amidated C-terminus including the linker. The peptide spots were transferred to a 96-well microtiter plate and incubated for 30 min to dissociate the peptides from the cellulose. After serial dilution and addition of strain H1001, luminescence was recorded in a time dependent manner (FIG. 1). All 50 scrambled peptides were compared to Bac2A ([…]-NH2; SEQ ID NO: 1) by this assay (see Table 2). […] Further since all scrambled peptides had some activity, a sequence-specific interaction of the peptides with a receptor or target could be excluded.

[2] = test system: Pseudomonas aeruginosa strain H1001 fliC::luxCDABE; assay: Luminescence-based assay for the non-cleaved (bound) peptides on cellulose membranes; assay type: cell-based; conditions: for Luminescence at the given time in minutes: 0 / Luminescence at the given time in minutes: 20 / Luminescence at the given time in minutes: 40 / Luminescence at the given time in minutes: 60 / Luminescence at the given time in minutes: 80 / Luminescence at the given time in minutes: 100 / Luminescence at the given time in minutes: 120 / Luminescence at the given time in minutes: 180 / Luminescence at the given time in minutes: 240: cellulose-bound peptide; for Luminescence at the given time in minutes: 0: 0 min; for Luminescence at the given time in minutes: 20: 20 min; for Luminescence at the given time in minutes: 40: 40 min; for Luminescence at the given time in minutes: 60: 60 min; for Luminescence at the given time in minutes: 80: 80 min; for Luminescence at the given time in minutes: 100: 100 min; for Luminescence at the given time in minutes: 120: 120 min; for Luminescence at the given time in minutes: 180: 180 min; for Luminescence at the given time in minutes: 240: 240 min; for Activity Class bound: uncleaved cellulose-bound peptides; for ability to inhibit light production (luminescence): cellulose bound peptide spots, three hours at 37° C., FIG. 2
Experimental: Luminescence-based MIC assay for the non-cleaved peptides on cellulose membranes. The peptide spots were punched out and transferred to a 96 well microtiter plate with a clear polystyrene bottom and opaque white polypropylene sides (PerkinElmer, Boston, USA). The spots were washed two times with 100% ethanol for 5 min and afterwards equilibrated five times with 100 mM Tris buffer pH 7.3 for 5 min. An overnight culture of Pseudomonas aeruginosa strain H1001 fliC::luxCDABE was diluted 1:50 in new MH medium and incubated at 37° C. to an OD600 of 0.35. This bacterial culture was diluted 1:25 into 10 mM Tris-HCl buffer, pH 7.3 containing 20 mM glucose. Fifty μl of this culture was added to all wells of the microtiter plate and incubated at 37° C. The luminescence of the strain produced by the ATP-dependent luciferase system was detected in a time dependent manner using a Tecan Spectra Fluor plus (Tecan, Austria). At the end of the experiment, the membranes were cleaned by washing the spots two times with 100% ethanol for five minutes. After removing the ethanol the membrane was air-dried.
as §1
The same set of peptides, as well as the reversed sequence of Bac2A-R ([…]; SEQ ID NO: 2166), were synthesized on cellulose and left uncleaved. The production of light was initially compared in wells containing spots of Bac2A, Bac2A-R (with the reversed sequence of Bac2A), the unrelated negative-control peptide, or, as additional controls, only cellulose, or only bacteria (FIG. 2).
As a control, the negative control (unrelated) peptide Bac429 and parent peptide Bac2A (=Bac001) were used in several different wells of the microtiter plate. Luminescence (relative light units; RLU) was measured at 14 different time points, 9 of which are shown. To permit comparison of the data with the free peptide data set, the result for each peptide was classified into six different groups, like the data set with the free peptides (Table 2). […] For the soluble peptides the following classes were established: […]

Sequence	Activity Class Soluble [1]	Luminescence at the given time in minutes: 0 [2]	Luminescence at the given time in minutes: 20 [2]	Luminescence at the given time in minutes: 40 [2]	Luminescence at the given time in minutes: 60 [2]	Luminescence at the given time in minutes: 80 [2]	Luminescence at the given time in minutes: 100 [2]	Luminescence at the given time in minutes: 120 [2]	Luminescence at the given time in minutes: 180 [2]	Luminescence at the given time in minutes: 240 [2] [RLU]	Activity Class bound [2]	ability to inhibit light production (luminescence) [2]
AAVRRRVRLVII [Bac010]	1	4380 RLU	6719 RLU	4170 RLU	1628 RLU	562 RLU	129 RLU	121 RLU	99 RLU	56	3 (Peptides similar to Bac2A resulting in lux values of less than 500 after 240 min.)	
ARAILIRVVRRV [Bac025]	3	4354 RLU	6728 RLU	3660 RLU	1127 RLU	343 RLU	113 RLU	115 RLU	114 RLU	80	3 (Peptides similar to Bac2A resulting in lux values of less than 500 after 240 min.)	
GATPEDLNQKLS [Bac429, negative control (unrelated) peptide, reference compound]		4295 RLU and 4593 RLU and 4337 RLU and 4761 RLU and 4537 RLU	7478 RLU and 7525 RLU and 7118 RLU and 7536 RLU and 7275 RLU	6031 RLU and 6900 RLU and 6593 RLU and 6318 RLU and 6459 RLU	5770 RLU and 6732 RLU and 6716 RLU and 6102 RLU and 6149 RLU	5449 RLU and 6701 RLU and 6273 RLU and 5996 RLU and 6092 RLU	4779 RLU and 6812 RLU and 6453 RLU and 6086 RLU and 5799 RLU	4438 RLU and 6872 RLU and 6210 RLU and 5899 RLU and 5611 RLU	3939 RLU and 7674 RLU and 6656 RLU and 6384 RLU and 5656 RLU			no activity in decreasing luminescence
IILAVRAVRRVR [Bac029]		4538 RLU	6664 RLU	5062 RLU	3963 RLU	2745 RLU	1799 RLU	1279 RLU	1012 RLU	942	4 (Peptides reducing luminescence (lux) values to between 500 to 1499 after 240 min.)	
IVVRRRRAALVI [Bac030]		4618 RLU	7325 RLU	5921 RLU	5326 RLU	4981 RLU	4418 RLU	4087 RLU	3861 RLU	3679	6 (Peptides having residual luminescence (lux) values greater than 3000 after 240 min.)	
RAVRIVVIRALR [Bac2A-R]												only a slightly decreased ability to inhibit light production
RRRAIVRVVAIL [Bac023]		3958 RLU	7783 RLU	5656 RLU	3751 RLU	1827 RLU	761 RLU	329 RLU	123 RLU	79	3 (Peptides similar to Bac2A resulting in lux values of less than 500 after 240 min.)	
RVLIARVVRAIR [Bac027]		4437 RLU	6695 RLU	4991 RLU	4421 RLU	4011 RLU	3545 RLU	3100 RLU	3182 RLU	3513	6 (Peptides having residual luminescence (lux) values greater than 3000 after 240 min.)	
